# Source: ChEMBL document CHEMBL1136948, “Non-nucleoside inhibitors of HCV NS5B polymerase. Part 1: Synthetic and computational exploration of the binding modes of benzothiadiazine and 1,4-benzothiazine HCV NS5b polymerase inhibitors” (Bioorg Med Chem Lett, 2009)
# pEC50, pIC50: −log10 of the molar value.
# System: not listed separately
# Assay: Apparent permeability across human Caco-2 cells after 7 days
# Format: ADME, cell-based
# Details: not given
row,Papp [×10⁻⁶ cm/s],SMILES
1,4.4,O=c1c(C2=CS(=O)(=O)c3ccccc3N2)c(O)c2ccccc2n1Cc1ccc(F)cc1
2,6.4,O=c1c(C2=CS(=O)(=O)c3ccccc3N2)c(O)c2cc(F)ccc2n1CCC1CC1
3,9.4,Cc1ccc2c(c1)c(O)c(C1=CS(=O)(=O)c3ccccc3N1)c(=O)n2CCC1CC1

# System: Hepatitis C virus
# Assay: Antiviral activity against HCV 1b replication in human 2209-23 cells assessed as [3H]thymidine incorporation into cellular DNA by scintillation proximity assay
# Format: functional, organism-based, Hepacivirus hominis
# Details: genotype 1b
row,SMILES,pEC50
1,O=c1c(C2=CS(=O)(=O)c3ccccc3N2)c(O)c2ccccc2n1Cc1ccccc1F,4.34
2,CC(C)CCn1c(=O)c(C2=CS(=O)(=O)c3ccccc3N2)c(O)c2ccccc21,5.60
3,O=S1(=O)N=C(c2nc(Cc3ccc(F)cc3)c3ccccc3c2O)c2ccccc21,6.36
4,O=c1c(C2=CS(=O)(=O)c3ccccc3N2)c(O)c2cc(F)ccc2n1Cc1ccc(F)cc1,6.15
5,CC(C)CCn1c(=O)c(C2=NS(=O)(=O)c3ccccc3N2)c(O)c2ccccc21,6.06
6,O=c1c(C2=CS(=O)(=O)c3ccccc3N2)c(O)c2cc(F)ccc2n1CCC1CC1,5.92
7,Cc1ccc2c(c1)c(O)c(C1=CS(=O)(=O)c3ccccc3N1)c(=O)n2Cc1ccc(F)cc1,5.82
8,Cc1cc(Cn2c(=O)c(C3=CS(=O)(=O)c4ccccc4N3)c(O)c3cc(F)ccc32)ccc1F,6.10
9,O=S1(=O)C=C(c2nc(Cc3ccc(F)cc3)c3ccccc3c2O)Nc2ccccc21,5.12
10,O=c1c(C2=CS(=O)(=O)c3ccccc3N2)c(O)c2cc(Cl)ccc2n1CCC1CC1,5.80

# Second part, the compound after the results:
row,pEC50,SMILES
1,5.15,COc1ccc2c(c1)c(O)c(C1=CS(=O)(=O)c3ccccc3N1)c(=O)n2CCC1CC1
2,6.19,Cc1ccc2c(c1)c(O)c(C1=CS(=O)(=O)c3ccccc3N1)c(=O)n2CCC1CC1
3,5.82,O=c1c(C2=CS(=O)(=O)c3ccccc3N2)c(O)c2cc(F)ccc2n1Cc1ccc(F)c(F)c1
4,5.07,CC(C)CCn1c(=O)c(C2=CS(=O)(=O)c3ccccc3N2)c(O)c2cc(F)cnc21
5,6.10,O=c1c(C2=CS(=O)(=O)c3ccccc3N2)c(O)c2ccccc2n1Cc1ccc(F)cc1
6,6.59,O=c1c(C2=Nc3ccccc3S(=O)(=O)N2)c(O)c2cc(F)ccc2n1CCC1CC1

# System: Hepatitis C virus
# Assay: Inhibition of HCV 1b J4 NS5B Cdelta 21polymerase over expressed in Escherichia coli assessed as [alpha33P]UTP incorporation
# Parameters: species or system Hepatitis C virus subtype 1b
# Details: not given
row,pIC50,SMILES
1,8.00,O=c1c(C2=Nc3ccccc3S(=O)(=O)N2)c(O)c2cc(F)ccc2n1CCC1CC1
2,7.52,CC(C)CCn1c(=O)c(C2=NS(=O)(=O)c3ccccc3N2)c(O)c2ccccc21

# System: not listed separately
# Assay: Apparent permeability from basolateral to apical side of human Caco-2 cells after 21 days
# Details: not given
row,Papp B→A [×10⁻⁶ cm/s],SMILES
1,7.1,O=c1c(C2=CS(=O)(=O)c3ccccc3N2)c(O)c2cc(F)ccc2n1CCC1CC1
2,5.3,Cc1cc(Cn2c(=O)c(C3=CS(=O)(=O)c4ccccc4N3)c(O)c3cc(F)ccc32)ccc1F

# System: Hepatitis C virus
# Assay: Inhibition of HCV 1b NS5B polymerase
# Format: organism-based, Hepatitis C virus subtype 1b
# Details: not given
row,SMILES,pIC50
1,O=c1c(C2=CS(=O)(=O)c3ccccc3N2)c(O)c2ccccc2n1Cc1ccccc1F,4.76
2,CC(C)CCn1c(=O)c(C2=CS(=O)(=O)c3ccccc3N2)c(O)c2cccnc21,5.85
3,CC(C)CCn1c(=O)c(C2=CS(=O)(=O)c3ccccc3N2)c(O)c2ccccc21,5.64
4,CC(C)CCn1c(=O)c(C2=NS(=O)(=O)c3ccccc3N2)cc2ccccc21,3.17
5,Cc1c(-c2ccccc2)c(O)c(C2=CS(=O)(=O)c3ccccc3N2)c(=O)n1CCC(C)C,4.06
6,O=S1(=O)N=C(c2nc(Cc3ccc(F)cc3)c3ccccc3c2O)c2ccccc21,5.66
7,O=c1c(C2=CS(=O)(=O)c3ccccc3N2)c(O)c2cc(F)ccc2n1Cc1ccc(F)cc1,6.15
8,N#Cc1cccc(Cn2c(=O)c(C3=CS(=O)(=O)c4ccccc4N3)c(O)c3cc(F)ccc32)c1,4.43
9,CC(C)CCn1c(=O)c(C2=NS(=O)(=O)c3ccccc3N2)c(O)c2ccccc21,5.96
10,O=c1c(C2=CS(=O)(=O)c3ccccc3N2)c(O)c2cc(F)ccc2n1CCC1CC1,5.96
11,CN1C(c2nc(Cc3ccc(F)cc3)c3ccccc3c2O)=CS(=O)(=O)c2ccccc21,4.71
12,Cc1ccc2c(c1)c(O)c(C1=CS(=O)(=O)c3ccccc3N1)c(=O)n2Cc1ccc(F)cc1,5.82
13,Cc1cc(Cn2c(=O)c(C3=CS(=O)(=O)c4ccccc4N3)c(O)c3cc(F)ccc32)ccc1F,6.40
14,CC(C)CCn1cc(C2=NS(=O)(=O)c3ccccc3N2)c(=O)c2ccccc21,< 3.00
15,O=S1(=O)C=C(c2nc(Cc3ccc(F)cc3)c3ccccc3c2O)Nc2ccccc21,5.16
16,O=c1c(C2=CS(=O)(=O)c3ccccc3N2)c(O)c2cc(Cl)ccc2n1CCC1CC1,5.62

# Further compounds by rising pIC50, results first:
row,pIC50,SMILES
1,3.06,CC(C)CCn1c(=O)c(C2=CS(=O)(=O)c3ccccc3N2)cc2ccccc21
2,5.42,COc1ccc2c(c1)c(O)c(C1=CS(=O)(=O)c3ccccc3N1)c(=O)n2CCC1CC1
3,5.57,O=c1c(C2=CS(=O)(=O)c3ccccc3N2)c(O)c2cccnc2n1CCC1CC1
4,5.89,Cc1ccc2c(c1)c(O)c(C1=CS(=O)(=O)c3ccccc3N1)c(=O)n2CCC1CC1
5,5.92,O=c1c(C2=CS(=O)(=O)c3ccccc3N2)c(O)c2cc(F)ccc2n1Cc1ccc(F)c(F)c1
6,6.08,CC(C)CCn1c(=O)c(C2=CS(=O)(=O)c3ccccc3N2)c(O)c2cc(F)cnc21
7,6.14,O=c1c(C2=CS(=O)(=O)c3ccccc3N2)c(O)c2ccccc2n1Cc1ccc(F)cc1
8,7.00,O=c1c(C2=Nc3ccccc3S(=O)(=O)N2)c(O)c2cc(F)ccc2n1CCC1CC1

# System: not listed separately
# Assay: Apparent permeability from apical to basolateral side of human Caco-2 cells after 21 days
# Details: not given
row,Papp A→B [×10⁻⁶ cm/s],SMILES
1,0.6,O=c1c(C2=CS(=O)(=O)c3ccccc3N2)c(O)c2cc(F)ccc2n1CCC1CC1
2,0.5,Cc1cc(Cn2c(=O)c(C3=CS(=O)(=O)c4ccccc4N3)c(O)c3cc(F)ccc32)ccc1F

# System: Hepatitis C virus
# Assay: Antiviral activity against HCV in human HuH7 cells by replicon assay
# Format: functional, organism-based, Hepacivirus hominis
# Details: Huh-7
row,pIC50,SMILES
1,7.40,O=c1c(C2=Nc3ccccc3S(=O)(=O)N2)c(O)c2cc(F)ccc2n1CCC1CC1
